Laboratory results reported in patent US20150079029A1, “METHODS AND COMPOSITIONS FOR INHIBITING ANGIOGENESIS” (Oncology Research International Limited, priority 2006, published 2015).

Assays:
[1] = test system: angiogenesis induced by bFGF in angiosponges; assay: AngioSponge assay: bFGF-induced neovascularisation of implanted gelfoam, CD31 staining; assay type: in vivo, C3H/Hej mice; conditions: i.p. once daily for 10 days, dioscin 10, deltonin 10, trillin 60, prosapogenin A 20, sorafenib 60 mg/kg
From the text: The AngioSponge™ assay enables slow release of agarose-captured growth factor, which stimulates endothelial cell proliferation and migration, and provides a tissue-like matrix for neovascularisation. The assay can be therefore be used to gauge the efficacy of treatments designed to inhibit angiogenesis, determined by counting blood vessels after CD31 immunohistochemical staining of endothelial cells (McCarty et al, International Journal of Oncology, 21:5-10, 2002).
Gelfoams (Pharmacia & Upjohn) were cut into approximately 7×7×7 mm pieces, under sterile conditions, and pre-soaked over night with sterile phosphate buffered saline. The hydrated gelfoams were then partially dried. Growth factor (bFGF) was diluted to an initial concentration of 2 μg/mL in warm (37° C.) 0.4% agarose. The partially dried gelfoams were placed in the growth factor solution, or in warm 0.4% agarose without growth factor, and then transferred to a Petri dish containing warm 0.4% agarose (1:1 dilution, final growth factor concentration 1 μg/mL) for polymerisation and solidification.
70 female C3H/Hej mice were microchipped, weighed and randomised based on body weight into 7 groups with 10 mice per group. For implantation, the mice were anaesthetised by halothane inhalation. A small channel forged with a trocar needle between the 3rd and 4th mammary gland, the sponge was inserted to the full depth of the channel and the incision closed with a wound clip.
The compounds were formulated in N-methylpyrrolidone (NMP):PEG300:Water (1:9:10, v/v). Dosing was established on the basis of in vitro IC50 data and preliminary toxicity studies. Compounds were administered daily by intraperitoneal injection, at a dosing volume of 10 mL/kg, once daily for the study period as shown in Table 5.
Treatment was started when all the animals had recovered fully from anaesthesia, and continued for 10 days. On Day 11, the angiosponges were excised and snap frozen in liquid nitrogen with OCT for CD31 staining on frozen sections.
CD31/PECAM-1 is an antigen present specifically on endothelial cells and can therefore be used as a marker for blood vessels. Frozen samples of the sponge were cryo-sectioned (12 μm), mounted on positively-charged Plus slides (Fisher Scientific), and air-dried for 30 minutes. Frozen sections were in turn fixed in cold acetone, acetone/chloroform (1:1, v/v), and acetone for 5 min each, and then washed with PBS (phosphate buffer saline). After blocking with PBS containing 5% normal horse serum and 1% normal goat serum, sections were incubated with PECAM-1 monoclonal rat anti-mouse CD31 antibody (1:5000 in blocking solution, PharMingen, San Diego, Calif.) for 4 hours at room temperature. The slides were then washed three times with PBS and incubated with adequate secondary anti-rat antibody. Positive reactions were visualized by incubating the slides in stable 3,3′-diaminobenzidine for 5-10 min. The sections were rinsed with distilled water, counter-stained with Gill's haematoxylin for 1 min, and mounted with Universal Mount (Research Genetics). […] Mouse placenta was used as a positive control. For quantification, 3 independent visual fields were chosen and positive stained spots or vessels with lumen were counted.
The Percent Induction for a treatment is the difference in CD31 counts between the treatment (+bFGF) and the vehicle alone (no bFGF), divided by the difference in CD31 counts between the vehicle with bFGF and the vehicle alone (no bFGF), expressed as a percentage.

[2] = test system: angiogenesis induced by bFGF in angiochambers; assay: AngioChamber assay: bFGF-induced fibrous capsule formation and haemoglobin (Drabkin) blood content; assay type: in vivo, FvB mice; conditions: i.p. once daily for 5 days, dioscin 10, deltonin 10, trillin 60, prosapogenin A 20, sorafenib 60 mg/kg
From the text: The AngioChamber™ assay utilises the normal physiological process of wound healing, which promotes the formation of a fibrous capsule around an implanted chamber (Wood et al, (2000) Cancer Research, 60(8):2178-89). The inclusion of bFGF in the chamber induces blood vessel development in the fibrous capsule. The assay therefore assesses the efficacy of treatments by gauging their effect both on the fibrous capsule formation, measured by the wet weight of the capsule at the termination of the study and by determination of blood vessel supply to the chamber by assaying for haemoglobin content. The haemoglobin content of the fibrous capsule is a measure of neovascularisation, which is assayed by the Drabkin Assay.
The angiochambers were porous tissue chambers made of perfluoro-alkoxy-Teflon and filled with 0.8% agar containing 20 IU/mL heparin, with or without 1 μg/mL human bFGF. Both ends of the chamber were sealed with removable caps of the same material. The chambers were filled under sterile conditions with 0.8% agar containing 20 IU/mL heparin, with or without 1 μg/mL human bFGF. The agarose solution was maintained at 37° C. prior to filling the chambers.
70 female FvB mice were microchipped, weighed and randomised based on body weight into 7 groups with 10 mice per group. For implantation, the mice were anaesthetised by halothane inhalation. Approximately 150 μL sterile filtered air was injected subcutaneously in the back of each mouse, between the shoulder blades, resulting in an air pocket in which a small incision was made and the chamber inserted. The wound was closed with two 1.4 mm wound clips.
The treatments, which were all formulated in NMP:PEG300:Water (1:9:10, v/v) and administered daily by intraperitoneal injection, were as given in the Table 7:
Treatment was started when all the animals had recovered fully from anaesthesia, and continued for 5 days. On Day 6, the vascularised fibrous chambers were removed and the wet weight recorded for each implant. The chamber from each mouse was then snap frozen with liquid nitrogen and stored at −20° C. until assessed for haemoglobin content.
The fibrous capsule samples were thawed and kept on ice during the procedure. Sterile water was added to each thawed sample, and the sample homogenised with an UltraTourax at high speed. To avoid cross-contamination, the UltraTourax was flushed for 30 seconds with 5 mL distilled water after homogenising each sample. The homogenate was transferred into 2 mL Eppendorf tubes and stored on ice. The Eppendorf tubes were centrifuged at 4° C. and high speed (14,000 relative centrifugal force (RCF)) for 60 min. 1.0-1.5 mL of the intermediate aqueous solution (homogenate), between the pellet and the fat layer, was then transferred to fresh labelled 1.5 mL Eppendorf tubes and stored on ice. 50 μL of each homogenate was transferred into separate wells of a 96-well plate. 50 μL of water was transferred into 2 wells as blanks. 50 μL of Drabkin's reagent was then added to each well and mixed. After 15 min incubation at room temperature, the absorbance of each sample at 540 nm was measured and the volume of blood for each sample calculated from a standard curve.
The Percent Induction for a treatment is the difference in blood content between the treatment (+bFGF) and the vehicle alone (no bFGF), divided by the difference in blood content between the vehicle with bFGF and the vehicle alone (no bFGF), expressed as a percentage.

C[C@@H]1CC[C@@]2(OC1)O[C@H]1C[C@H]3[C@@H]4CC=C5C[C@@H](O[C@@H]6O[C@H](CO)[C@@H](O[C@@H]7O[C@H](CO)[C@@H](O)[C@H](O)[C@H]7O)[C@H](O)[C@H]6O[C@@H]6O[C@@H](C)[C@H](O)[C@@H](O)[C@H]6O)CC[C@]5(C)[C@H]4CC[C@]3(C)[C@H]1[C@@H]2C [Deltonin, diosgenin Rha2, [Glc4], Glc]
Percent Induction (CD31 counts relative to vehicle + bFGF minus vehicle alone) [1]: 61% | Average number of blood vessels (CD31 counts) ([1]; sponges excised Day 11): 44 | Percent Induction (blood content relative to vehicle + bFGF minus vehicle alone) [2]: 20% | Average blood content (from haemoglobin content) ([2]; Drabkin assay): 0.79 µL | Average chamber weight ([2]; wet weight on Day 6): 0.126 g
